Laboratory results reported in publication PMC7170889, “Synthesis and evaluation of designed PKC modulators for enhanced cancer immunotherapy” (Nature Communications, 2020).

How the values were obtained:
[1] = target: T1, PKCδ-GFP fusion protein (Homo sapiens, UniProt Q05655); experiment: PKCδ-GFP translocation assay in living CHO-k1 cells (confocal microscopy); format: cell-based, Chinese hamster; details: for Emax at 0.2 µM: CHO-K1, 200 nM compound; for Emax at 0.2 µM / minimum effective concentration required to induce translocation of PKC-GFP to the membrane / % Translocation (maximum translocation of PKCδ-GFP to the plasma membrane) / Emax at 1 µM: CHO-k1 cells; for Emax at 0.2 µM / % Translocation (maximum translocation of PKCδ-GFP to the plasma membrane) / Emax at 1 µM: n = 3; for Emax at 0.2 µM / Emax at 1 µM: read-out: % Translocation (maximum translocation of PKCδ-GFP to the plasma membrane); for minimum effective concentration required to induce translocation of PKC-GFP to the membrane: tested at 200 and 1000 nM; for Emax at 1 µM: CHO-K1, 1000 nM compound
T1 construct: expressed in transfected cells; host or cells: CHO-k1 (Chinese hamster ovary, ATCC)
T1 sequence (Q05655 whole entry, the tested form may be a part): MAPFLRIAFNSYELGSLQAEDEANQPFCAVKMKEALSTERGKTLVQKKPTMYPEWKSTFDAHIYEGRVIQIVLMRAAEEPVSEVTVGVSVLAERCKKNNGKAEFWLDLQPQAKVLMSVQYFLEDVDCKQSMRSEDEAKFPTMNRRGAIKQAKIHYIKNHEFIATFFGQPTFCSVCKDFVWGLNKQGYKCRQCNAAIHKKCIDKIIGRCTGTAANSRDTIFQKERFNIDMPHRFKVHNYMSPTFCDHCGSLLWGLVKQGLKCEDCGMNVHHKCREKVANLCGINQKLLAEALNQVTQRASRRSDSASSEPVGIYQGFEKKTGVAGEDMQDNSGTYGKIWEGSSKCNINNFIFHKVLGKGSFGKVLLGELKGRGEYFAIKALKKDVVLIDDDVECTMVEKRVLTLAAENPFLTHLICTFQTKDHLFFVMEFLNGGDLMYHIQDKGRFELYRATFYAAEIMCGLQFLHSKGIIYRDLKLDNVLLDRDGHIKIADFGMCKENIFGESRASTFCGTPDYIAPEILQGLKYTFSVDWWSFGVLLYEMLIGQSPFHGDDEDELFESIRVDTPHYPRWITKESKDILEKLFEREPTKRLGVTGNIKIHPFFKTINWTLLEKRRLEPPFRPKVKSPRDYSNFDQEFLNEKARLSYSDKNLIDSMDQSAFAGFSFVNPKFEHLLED
Experimental: (§1) With a panel of compounds bearing diverse functionality at C13, we began to explore how these modifications affect PKC binding and biological function. Because an obvious prerequisite for PKC pathway involvement is binding to PKC, compounds were initially evaluated for PKC affinity in a cell-free competitive binding assay with tritiated phorbol dibutyrate ([^3H]-PDBu). Assays were performed with representative members of both the conventional (PKCα) and novel (PKCδ) PKC families. Subsequently, compounds were assayed for PKC isoform translocation in real time in living cells using an optical assay. Translocation to the plasma membrane is the hallmark of PKC activation[18],[57],[60] and therefore monitoring the subcellular localization of a PKCδ-GFP fusion protein via confocal microscopy offers a convenient method for determining whether a compound enters a cell and engages its PKC isoform target. Finally and of clinical significance, we also determined the effect of compounds on CD22 surface expression in vitro in NALM6 cells, an ALL cell line previously studied in connection with CD22-targeted CAR T cell therapy, and two additional lymphoma cell lines[11],[31],[65].
Scale bar represents 25 μm. Experiments performed in n = 3 biological replicates. b–d Cytosolic fluorescence normalized to t = 0 (time immediately prior to addition of compound to media) and plotted against time. Error bars excluded for clarity (data presented as the mean of n = 3 biological replicates). Individual curves with error bars included in Supplementary Information.
PKCδ-GFP Translocation Assay Protocol
Chinese hamster ovary factor K1 (CHO-k1, ATCC) cells were cultured in F-12 Kaighn’s media (Hyclone, 10% fetal bovine serum, 1% penicillin/streptomycin added, reffered to as F-12 +/+ below) at 37 ° C in an incubator (5% CO2). Cell cultures were maintained by splitting cells 1:3 when they reached ~75-100% confluence (every 2-3 days) as follows:
(Gibco) was used to remove the cells from the culture flask (T75, Falcon). 1 mL of the cell suspension was then added to 9 mL of fresh F-12 +/+ and the sample was sub-cultured until reaching confluence (~2-3 days).
Cells were counted using a Countess II Automated Cell Counter (Fisher). The cell suspension was diluted to 240,000 cells/mL with fresh F-12 +/+ and 2.5 mL of this diluted stock was added to one well in a 6-well plate. The cells were then cultured for 24 hours.
Cells were transfected with Lipofectamine 2000 reagent (Invitrogen) or DA 13:11 at a 10:1 charge […]
F-12 +/+ was aspirated and cells were washed with F-12 -/-. 2 mL of fresh F-12 -/- was then added to each well, taking care not to disturb adherent cells. For each well of CHO-k1 cells, 12.5 µL Lipofectamine 2000 reagent (Invitrogen) was added to 250 µL Opti-MEM reduced serum media (Invitrogen) in a polypropylene tube and incubated for 20 minutes at RT. Meanwhile, for each well, 4 µg of PKCδ-GFP pDNA and 250 µL Opti-MEM reduced serum media was added to a separate polypropylene tube. 250 µL of the Lipofectamine 2000 suspension was added to the DNA suspension and the solution incubated for 30 minutes at RT. 500 µL of the Lipofectamine/DNA suspension was added to the respective wells of the 6-well plate. The cells were then incubated at 37 ° C (5% CO2) for ~24 hrs.
F-12 +/+ was aspirated and cells were washed with F-12 -/-. 2.4 mL of fresh F-12 -/- was then added to each well, taking care not to disturb adherent cells. A 4 µg aliquot of PKCδ-GFP pDNA was added to PBS (pH 5.5, final volume 100 µL). 5.6 µL of DA 13:11 (2 mM stock in DMSO) was then added to the DNA solution, and the mixture was gently mixed (by flicking) for 20 seconds, at which point it was added directly to the respective wells of the 6-well plate.

[2] = system: PKC; experiment: PKC competitive binding assay, isoform not specified; parameters: species or system human
Experimental: as §1
PKC Binding Assay Protocol […]
competition with 3H-phorbol-12,13-dibutyrate (3H-PDBu) as described below. This procedure entails a glass-fiber filtration method to determine bound radioligand.
Preparation of PKC binding assay buffer
To a 50 mL polypropylene tube was added Tris-HCl (pH 7.4, 1 M, 1 mL), KCl (1 M, 2 mL), CaCl2 (0.1 M, 30 μL), and bovine serum albumin (BSA, 40 mg, Sigma-Aldrich). This mixture was diluted to 20 mL with deionized H2O and mixed gently. The buffer was stored on ice until use. The final […]
Supplementary Table1. PKC binding assay buffer composition.
Preparation of phosphatidylserine (PS) vesicles
For every two assays, 3.5 mg phosphatidylserine (Avanti Polar Lipids, porcine, 25 mg/mL CHCl3 solution) was concentrated by removing chloroform under a stream of nitrogen followed by reduced pressure. The solid PS was suspended as vesicles in freshly prepared PKC binding assay buffer (3.5 mL) by sonicating six times for 30 sec, with a 30 sec rest between sonications (Branson Sonifier 250, power = 2, 50% duty cycle). The resulting milky cloudy mixture (1 mg/mL) was stored […]
Preparation of PKC isoform solution
Assay PKC was prepared by dissolving a 4 μg aliquot of the indicated recombinant human PKC isoform (Invitrogen) into 11.6 mL of PKC binding assay buffer (this amount is sufficient for two assays). The diluted PKC was stored on ice for immediate use.
Preparation of 3H-PDBu solution
3H-PDBu (American Radiolabeled Chemicals, Inc.; 1 mCi/mL acetone solution; specific activity: […]) was diluted 10-fold with DMSO. The resulting 500 nM stock solution was further diluted with DMSO to 30 nM.
Preparation of analog compound dilutions
Compound dilutions were prepared by serially diluting from a chosen "high" concentration by factors of 3 or 4. For each analog compound, seven concentrations were used to define the […]
To a polypropylene tube was added 3.3 mL of 1 mg/mL PS vesicles solution, 11 mL of PKC isoform solution, and 1.1 mL of 30 nM 3H-PDBu solution were added. The resulting solution was vortexed to mix and stored on ice.
PKC binding assay protocol
- Glass-fiber filters (Whatman GF/B) were prepared by soaking them in a solution of […]

[3] = system: CD22 surface expression in NALM6 cells; experiment: CD22 surface expression in NALM6 cells (flow cytometry); format: cell-based, human; details: NALM6 cells at 1 nM relative to DMSO control; 24 h incubation, washout, 24 h sub-culture; n = 3
Experimental: CD22 Surface Expression Protocol – NALM6 Cells […]
unless otherwise noted below) at 37 ° C in an incubator (5% CO2). Cell cultures were maintained […]
Cell suspension from a confluent T75 flask (Fisher) was transferred to a 15 mL falcon tube and centrifuged at 1100 rpm for 7 minutes. The supernatant was aspirated, and the cell pellet was […]
Cells were counted using a Countess II Automated Cell
199 µL of this stock was added to 24 wells (enough for triplicate measurements for 8 different experimental conditions) in a 96-well plate. Dosing was […]
each experiment. 1 µL of DMSO or the appropriate stock solution of compound in DMSO was added to each well. Cells were incubated for 24 hours, at which point the cell suspensions were transferred to 1.5 mL Eppendorf tubes and diluted with 1.0 mL of PBS (Hyclone, without Ca2+ or Mg2+). Samples were centrifuged at 2000 rpm for 5 min at RT. The supernatant was aspirated, […]
Cells were sub-cultured between 2 […]
surface expression was assayed by flow cytometry.
Cells from one well were counted using a Countess II Automated Cell Counter (Fisher). ~200,000 – 300,000 cells from each well were added to 1.5 mL Eppendorf tubes containing PBS (final volume ~1.2 mL). The cell suspensions were centrifuged at 1500 rpm for 7 minutes at 4 °C. The supernatant was aspirated, and the cell pellet was resuspended in 99 µL of pre-chilled FACS […]
buffer (0.5% w/v BSA in PBS). […]
minutes. Samples were then diluted with an additional 1.0 mL of FACS buffer and centrifuged at 1500 rpm for 7 minutes at 4 °C. The supernatant was aspirated, the cell pellets were resuspended in 200 µL FACS buffer, and the resulting suspensions were transferred to FACS tubes (Fisher, […]
Cells were stained with DAPI and CD22 surface expression was analyzed using the FACScan Analyzer at the Stanford Shared FACS Facility. Data analysis was performed using FlowJo and Microsoft Excel.

SMILES	Emax at 0.2 µM [1] [%]	minimum effective concentration required to induce translocation of PKC-GFP to the membrane [1] [nM]	% Translocation (maximum translocation of PKCδ-GFP to the plasma membrane) ([1]; 1000 nM compound) [%]	Emax at 1 µM [1] [%]	other results
CCCCCCCC(=O)O[C@H]1/C(=C/C(=O)OC)C[C@H]2C[C@H]([C@@H](C)O)OC(=O)C[C@H](O)C[C@@H]3C[C@H](OC(C)=O)C(C)(C)[C@](O)(C[C@@H]4C[C@@H](C)C[C@H](/C=C/C(C)(C)[C@]1(O)O2)O4)O3 [SUW226]	75	200	–	–	–
CCCCCC#CC(=O)O[C@H]1/C(=C/C(=O)OC)C[C@H]2C[C@H]([C@@H](C)O)OC(=O)C[C@H](O)C[C@@H]3C[C@H](OC(C)=O)C(C)(C)[C@](O)(C[C@@H]4C[C@@](O)(CO)C[C@H](/C=C/C(C)(C)[C@]1(O)O2)O4)O3 [SUW203]	–	1000	50	~50	PKC binding affinity in words ([2]; conventional and novel PKC isoforms): single-digit nanomolar
CCCC=CC=CC(=O)OC1C(=CC(=O)OC)CC2CC(C(C)O)OC(=O)CC(O)CC3CC(OC(C)=O)C(C)(C)C(O)(CC4CC(=CC(=O)OCc5ccccc5)CC(C=CC(C)(C)C1(O)O2)O4)O3 (centres unmarked) [SUW220]	–	1000	50	–	–
CCCC=CC=CC(=O)OC1C(=CC(=O)OC)CC2CC(C(C)O)OC(=O)CC(O)CC3CC(OC(C)=O)C(C)(C)C(O)(CC4CC(OC(=O)CCC(=O)O)CC(C=CC(C)(C)C1(O)O2)O4)O3 (centres unmarked) [SUW211]	–	1000	–	20	sustained translocation of PKC ([1]; at up to 1000 nM): did not achieve sustained translocation of PKC; decrease in affinity to PKC ([2]; charged substituents at C13, Table 1 data): 20-100 fold
C=CCOC(=O)/C=C1\C[C@H]2C[C@]3(O)O[C@H](C[C@@H](O)CC(=O)O[C@@H]([C@@H](C)O)C[C@@H]4C/C(=C\C(=O)OC)[C@H](OC(=O)/C=C/C=C/CCC)[C@@](O)(O4)C(C)(C)/C=C/[C@@H](C1)O2)C[C@H](OC(C)=O)C3(C)C [SUW230]	–	200	–	–	Fold increase CD22 expression [3]: 1.62 fold; % Translocation (maximum translocation of PKCδ-GFP to the plasma membrane) ([1]; 200 nM compound): 65%
CCC/C=C/C=C/C(=O)O[C@H]1/C(=C/C(=O)OC)C[C@H]2C[C@H]([C@@H](C)O)OC(=O)C[C@H](O)C[C@@H]3C[C@H](OC(C)=O)C(C)(C)[C@](O)(C[C@@H]4C[C@H](OC(C)=O)C[C@H](/C=C/C(C)(C)[C@]1(O)O2)O4)O3 [SUW206]	60	200	–	–	–
